Patent publication US20220242870A1, “HETEROCYCLE-FUSED PYRIMIDINE DERIVATIVE AND USE THEREOF” (VORONOI Inc., priority 2019, published 2022)

Tests used:
Experiment in all cases: scanMAX kinase assay panel
Type in all cases: binding
[1] = biological target: T1, ABL1(Q252H)-nonphosphorylated (Homo sapiens, UniProt P00519, Q252H); settings: read-out: control percentage (% control)
T1 construct: purchased DiscoverX (scanMAX panel, contract assay)
Protocol: (§1) The activities of the compounds according to the present invention to more diverse enzymes were evaluated. Specifically, it was decided that the enzyme selectivity of Example 74 selected from the compounds of Examples 1 to 129 was measured at the request of DiscoverX, and the experiment was conducted using a scanMAX™ kinase assay panel. At this time, as a drug to treat the enzyme, a solution prepared by dissolving in DMSO at a concentration of 1 μM was used, and the control percentage (% control) was determined by the method of Equation 1 below, and the results were shown in Table 2 below.
(§2) In Equation above, the positive control and negative control mean compounds showing control percentages of 0% and 100% as DMSO, respectively.

[2] = biological target: T2, ABL1(T315I)-nonphosphorylated (Homo sapiens, UniProt P00519, T315I); settings: read-out: control percentage (% control)
T2 construct: purchased DiscoverX (scanMAX panel, contract assay)
Protocol: as §1, §2

[3] = biological target: T3, ABL1(T315I)-phosphoryIated (Homo sapiens, UniProt P00519, T315I); settings: read-out: control percentage (% control)
T3 construct: purchased DiscoverX (scanMAX panel, contract assay)
Protocol: as §1, §2

BIKE = biological target: T4, BIKE (Homo sapiens, UniProt Q9NSY1); settings: read-out: control percentage (% control)
T4 construct: purchased DiscoverX (scanMAX panel, contract assay)
Protocol: as §1, §2

CSNK1G2 = biological target: T5, CSNK1G2 (Homo sapiens, UniProt P78368); settings: read-out: control percentage (% control)
T5 construct: purchased DiscoverX (scanMAX panel, contract assay)
Protocol: as §1, §2

EGFR(L858R, T790M) = biological target: T6, EGFR(L858R, T790M) (Homo sapiens, UniProt P00533, L858R/T790M); settings: read-out: control percentage (% control)
T6 construct: purchased DiscoverX scanMAX kinase assay panel
Protocol: as §1, §2

EGFR(T790M) = biological target: T7, EGFR(T790M) (Homo sapiens, UniProt P00533, T790M); settings: read-out: control percentage (% control)
T7 construct: purchased DiscoverX scanMAX kinase assay panel
T7 sequence (P00533 25-1210 T790M): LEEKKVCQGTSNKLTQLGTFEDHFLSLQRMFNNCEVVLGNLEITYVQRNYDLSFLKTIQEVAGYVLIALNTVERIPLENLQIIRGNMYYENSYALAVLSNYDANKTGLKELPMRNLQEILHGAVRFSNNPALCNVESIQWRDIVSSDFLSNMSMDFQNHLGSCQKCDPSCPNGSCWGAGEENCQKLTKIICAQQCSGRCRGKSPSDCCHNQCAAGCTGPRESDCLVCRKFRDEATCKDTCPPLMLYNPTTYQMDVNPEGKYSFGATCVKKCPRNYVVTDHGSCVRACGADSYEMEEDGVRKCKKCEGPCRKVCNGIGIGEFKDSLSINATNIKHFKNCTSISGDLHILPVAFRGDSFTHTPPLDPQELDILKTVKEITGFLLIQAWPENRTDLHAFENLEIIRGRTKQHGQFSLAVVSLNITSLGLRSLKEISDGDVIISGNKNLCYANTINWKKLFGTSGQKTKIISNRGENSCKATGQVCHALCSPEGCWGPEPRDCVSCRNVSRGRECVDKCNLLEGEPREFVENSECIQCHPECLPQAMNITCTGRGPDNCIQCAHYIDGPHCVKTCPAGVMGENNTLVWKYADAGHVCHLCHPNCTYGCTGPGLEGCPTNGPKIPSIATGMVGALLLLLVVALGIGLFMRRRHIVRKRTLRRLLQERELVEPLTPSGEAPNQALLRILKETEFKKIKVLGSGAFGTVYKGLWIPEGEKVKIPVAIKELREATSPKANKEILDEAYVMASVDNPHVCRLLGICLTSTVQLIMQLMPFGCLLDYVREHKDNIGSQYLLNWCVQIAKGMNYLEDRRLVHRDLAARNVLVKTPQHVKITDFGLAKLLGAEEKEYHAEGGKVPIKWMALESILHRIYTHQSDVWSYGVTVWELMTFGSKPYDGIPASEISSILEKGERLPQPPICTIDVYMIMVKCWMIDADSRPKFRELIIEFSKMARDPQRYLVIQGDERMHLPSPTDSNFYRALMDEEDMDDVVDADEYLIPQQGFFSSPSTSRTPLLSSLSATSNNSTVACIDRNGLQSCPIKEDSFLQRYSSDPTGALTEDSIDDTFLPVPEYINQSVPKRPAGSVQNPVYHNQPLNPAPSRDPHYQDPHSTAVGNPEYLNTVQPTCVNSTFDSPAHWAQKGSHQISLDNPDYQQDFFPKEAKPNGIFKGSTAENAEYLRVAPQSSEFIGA
Protocol: as §1, §2

EPHB4 = biological target: T8, EPHB4 (Homo sapiens, UniProt P54760); settings: read-out: control percentage (% control)
T8 construct: purchased DiscoverX scanMAX kinase assay panel
Protocol: as §1, §2

FLT3(ITD, D835V) = settings: 1 μM
Protocol: as §1, §2

FLT3(K663Q) = biological target: T9, FLT3(K663Q) (Homo sapiens, UniProt P36888, K663Q); settings: read-out: control percentage (% control)
T9 construct: purchased DiscoverX scanMAX kinase assay panel
Protocol: as §1, §2

INSR = biological target: T10, INSR (Homo sapiens, UniProt P06213); settings: read-out: control percentage (% control)
T10 construct: purchased DiscoverX scanMAX kinase assay panel
Protocol: as §1, §2

IRAK3 = biological target: T11, IRAK3 (Homo sapiens, UniProt Q9Y616); settings: read-out: control percentage (% control)
T11 construct: purchased DiscoverX scanMAX kinase assay panel
Protocol: as §1, §2

[4] = biological target: T12, JAK3(JH1domain-catalytic) (Homo sapiens, UniProt P52333); settings: read-out: control percentage (% control)
T12 construct: JAK3(JH1domain-catalytic); purchased DiscoverX scanMAX kinase assay panel
T12 sequence (P52333 822-1111 limits assumed): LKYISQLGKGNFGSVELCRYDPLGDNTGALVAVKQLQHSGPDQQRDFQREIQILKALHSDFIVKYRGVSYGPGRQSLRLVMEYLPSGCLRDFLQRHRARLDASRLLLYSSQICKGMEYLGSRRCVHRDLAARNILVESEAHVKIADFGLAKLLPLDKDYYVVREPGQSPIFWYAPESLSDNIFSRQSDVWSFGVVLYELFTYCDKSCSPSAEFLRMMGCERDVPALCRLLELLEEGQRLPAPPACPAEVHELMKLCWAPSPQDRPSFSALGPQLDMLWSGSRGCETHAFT
Protocol: as §1, §2

LTK = biological target: T13, LTK (Homo sapiens, UniProt P29376); settings: read-out: control percentage (% control)
T13 construct: purchased DiscoverX scanMAX kinase assay panel
Protocol: as §1, §2

MAP3K2 = biological target: T14, MAP3K2 (Homo sapiens, UniProt Q9Y2U5); settings: read-out: control percentage (% control)
T14 construct: purchased DiscoverX scanMAX kinase assay panel
Protocol: as §1, §2

MAP3K3 = biological target: T15, MAP3K3 (Homo sapiens, UniProt Q99759); settings: read-out: control percentage (% control)
T15 construct: purchased DiscoverX scanMAX kinase assay panel
Protocol: as §1, §2

MAP4K2 = biological target: T16, MAP4K2 (Homo sapiens, UniProt Q12851); settings: read-out: control percentage (% control)
T16 construct: purchased DiscoverX scanMAX kinase assay panel
T16 sequence (Q12851 whole entry): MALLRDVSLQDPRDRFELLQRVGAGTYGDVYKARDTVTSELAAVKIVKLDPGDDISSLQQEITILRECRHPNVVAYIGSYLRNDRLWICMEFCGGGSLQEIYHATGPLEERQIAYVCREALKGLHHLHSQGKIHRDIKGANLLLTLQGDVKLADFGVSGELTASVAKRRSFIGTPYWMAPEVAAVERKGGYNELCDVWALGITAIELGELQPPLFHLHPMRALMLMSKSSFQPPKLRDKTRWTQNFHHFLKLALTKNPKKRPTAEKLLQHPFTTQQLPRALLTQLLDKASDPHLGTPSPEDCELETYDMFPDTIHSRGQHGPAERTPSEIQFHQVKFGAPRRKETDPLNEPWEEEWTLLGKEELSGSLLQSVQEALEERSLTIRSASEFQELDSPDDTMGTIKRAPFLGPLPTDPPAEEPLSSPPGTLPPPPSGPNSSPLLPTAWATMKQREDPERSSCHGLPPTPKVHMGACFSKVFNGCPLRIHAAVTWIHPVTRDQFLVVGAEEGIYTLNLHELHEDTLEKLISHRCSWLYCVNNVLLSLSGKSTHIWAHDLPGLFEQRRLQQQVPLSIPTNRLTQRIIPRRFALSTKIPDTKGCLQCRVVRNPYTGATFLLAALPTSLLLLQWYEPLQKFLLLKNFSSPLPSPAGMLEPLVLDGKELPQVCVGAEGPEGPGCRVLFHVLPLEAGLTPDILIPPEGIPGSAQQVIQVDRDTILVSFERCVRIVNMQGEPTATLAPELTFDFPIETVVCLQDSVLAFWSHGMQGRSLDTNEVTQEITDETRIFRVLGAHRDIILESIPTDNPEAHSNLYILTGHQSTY
Protocol: as §1, §2

MAP4K4 = biological target: T17, MAP4K4 (Homo sapiens, UniProt O95819); settings: read-out: control percentage (% control)
T17 construct: purchased DiscoverX scanMAX kinase assay panel
Protocol: as §1, §2

MEK5 = biological target: T18, MEK5 (Homo sapiens, UniProt Q13163); settings: read-out: control percentage (% control)
T18 construct: purchased DiscoverX scanMAX kinase assay panel
T18 sequence (Q13163 whole entry): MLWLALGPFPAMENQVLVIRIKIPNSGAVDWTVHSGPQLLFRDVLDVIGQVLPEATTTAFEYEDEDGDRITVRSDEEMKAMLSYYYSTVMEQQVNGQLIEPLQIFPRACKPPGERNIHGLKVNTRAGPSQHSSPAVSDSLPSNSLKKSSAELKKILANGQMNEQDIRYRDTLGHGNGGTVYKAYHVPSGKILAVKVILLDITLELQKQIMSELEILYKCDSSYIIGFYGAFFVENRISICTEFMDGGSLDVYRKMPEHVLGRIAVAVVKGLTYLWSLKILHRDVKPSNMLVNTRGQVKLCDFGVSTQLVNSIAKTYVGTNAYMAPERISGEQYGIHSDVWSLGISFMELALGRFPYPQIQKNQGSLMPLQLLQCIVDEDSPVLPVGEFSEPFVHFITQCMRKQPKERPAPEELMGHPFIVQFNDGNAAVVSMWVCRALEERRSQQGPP
Protocol: as §1, §2

MET(Y1235D) = biological target: T19, MET(Y1235D) (Homo sapiens, UniProt P08581, Y1235D); settings: read-out: control percentage (% control)
T19 construct: purchased DiscoverX scanMAX kinase assay panel
Protocol: as §1, §2

MST3 = biological target: T20, MST3 (Homo sapiens, UniProt Q9Y6E0); settings: read-out: control percentage (% control)
T20 construct: purchased DiscoverX scanMAX kinase assay panel
T20 sequence (Q9Y6E0 whole entry): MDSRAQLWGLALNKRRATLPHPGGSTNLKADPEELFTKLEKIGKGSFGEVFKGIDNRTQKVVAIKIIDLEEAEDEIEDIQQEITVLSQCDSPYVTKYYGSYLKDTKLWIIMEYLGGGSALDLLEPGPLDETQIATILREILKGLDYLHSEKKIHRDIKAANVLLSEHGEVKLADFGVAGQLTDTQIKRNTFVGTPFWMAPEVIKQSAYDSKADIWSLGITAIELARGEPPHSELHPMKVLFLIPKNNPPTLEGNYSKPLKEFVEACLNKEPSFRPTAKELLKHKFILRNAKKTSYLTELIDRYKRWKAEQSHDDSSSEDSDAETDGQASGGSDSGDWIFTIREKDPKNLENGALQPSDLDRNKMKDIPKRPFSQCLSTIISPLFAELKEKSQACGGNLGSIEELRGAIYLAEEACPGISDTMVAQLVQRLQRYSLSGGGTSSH
Protocol: as §1, §2

PIP5K2B = biological target: T21, PIP5K2B (Homo sapiens, UniProt P78356); settings: read-out: control percentage (% control)
T21 construct: purchased DiscoverX scanMAX kinase assay panel
T21 sequence (P78356 whole entry): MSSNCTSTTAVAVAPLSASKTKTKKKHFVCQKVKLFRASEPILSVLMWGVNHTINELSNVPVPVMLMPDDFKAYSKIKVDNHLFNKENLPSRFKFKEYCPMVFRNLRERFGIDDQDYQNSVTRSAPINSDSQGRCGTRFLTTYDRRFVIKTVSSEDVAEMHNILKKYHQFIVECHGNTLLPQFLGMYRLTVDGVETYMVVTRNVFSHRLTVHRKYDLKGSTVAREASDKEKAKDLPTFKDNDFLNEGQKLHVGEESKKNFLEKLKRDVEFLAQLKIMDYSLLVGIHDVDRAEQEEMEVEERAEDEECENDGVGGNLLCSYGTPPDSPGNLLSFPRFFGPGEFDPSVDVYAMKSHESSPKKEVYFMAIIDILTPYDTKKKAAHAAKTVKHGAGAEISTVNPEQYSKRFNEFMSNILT
Protocol: as §1, §2

RIOK1 = biological target: T22, RIOK1 (Homo sapiens, UniProt Q9BRS2); settings: read-out: control percentage (% control)
T22 construct: purchased DiscoverX scanMAX kinase assay panel
Protocol: as §1, §2

ROCK1 = biological target: T23, ROCK1 (Homo sapiens, UniProt Q13464); settings: read-out: control percentage (% control)
T23 construct: purchased DiscoverX scanMAX kinase assay panel
Protocol: as §1, §2

[5] = biological target: T24, RSK3(Kin.Dom.2-C-terminal) (Homo sapiens, UniProt Q15349); settings: read-out: control percentage (% control)
T24 construct: RSK3(Kin.Dom.2-C-terminal); purchased DiscoverX scanMAX kinase assay panel
Protocol: as §1, §2

TIE1 = biological target: T25, TIE1 (Homo sapiens, UniProt P35590); settings: read-out: control percentage (% control)
T25 construct: purchased DiscoverX
Protocol: as §1, §2

TRKA = biological target: T26, TRKA (Homo sapiens, UniProt P04629); settings: read-out: control percentage (% control)
T26 construct: purchased DiscoverX
Protocol: as §1, §2

TRKB = biological target: T27, TRKB (Homo sapiens, UniProt Q16620); settings: read-out: control percentage (% control)
T27 construct: purchased DiscoverX
Protocol: as §1, §2

TTK = biological target: T28, TTK (Homo sapiens, UniProt P33981); settings: read-out: control percentage (% control)
T28 construct: purchased DiscoverX
Protocol: as §1, §2

[6] = biological target: T29, TYK2(JH1domain-catalytic) (Homo sapiens, UniProt P29597); settings: read-out: control percentage (% control)
T29 construct: TYK2(JH1domain-catalytic); purchased DiscoverX
Protocol: as §1, §2

[7] = biological target: T30, TYK2(JH2domain-pseudokinase) (Homo sapiens, UniProt P29597); settings: read-out: control percentage (% control)
T30 construct: TYK2(JH2domain-pseudokinase); purchased DiscoverX
T30 sequence (P29597 589-875 limits assumed): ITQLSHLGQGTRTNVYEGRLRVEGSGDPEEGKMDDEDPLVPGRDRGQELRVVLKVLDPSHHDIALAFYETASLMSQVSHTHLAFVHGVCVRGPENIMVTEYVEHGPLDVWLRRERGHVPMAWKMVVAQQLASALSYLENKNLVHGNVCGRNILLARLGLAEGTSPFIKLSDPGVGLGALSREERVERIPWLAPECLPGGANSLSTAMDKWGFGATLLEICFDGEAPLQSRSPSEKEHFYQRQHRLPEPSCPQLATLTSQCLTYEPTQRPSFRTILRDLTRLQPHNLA
Protocol: as §1, §2

ULK1 = biological target: T31, ULK1 (Homo sapiens, UniProt O75385); settings: read-out: control percentage (% control)
T31 construct: purchased DiscoverX
T31 sequence (O75385 whole entry): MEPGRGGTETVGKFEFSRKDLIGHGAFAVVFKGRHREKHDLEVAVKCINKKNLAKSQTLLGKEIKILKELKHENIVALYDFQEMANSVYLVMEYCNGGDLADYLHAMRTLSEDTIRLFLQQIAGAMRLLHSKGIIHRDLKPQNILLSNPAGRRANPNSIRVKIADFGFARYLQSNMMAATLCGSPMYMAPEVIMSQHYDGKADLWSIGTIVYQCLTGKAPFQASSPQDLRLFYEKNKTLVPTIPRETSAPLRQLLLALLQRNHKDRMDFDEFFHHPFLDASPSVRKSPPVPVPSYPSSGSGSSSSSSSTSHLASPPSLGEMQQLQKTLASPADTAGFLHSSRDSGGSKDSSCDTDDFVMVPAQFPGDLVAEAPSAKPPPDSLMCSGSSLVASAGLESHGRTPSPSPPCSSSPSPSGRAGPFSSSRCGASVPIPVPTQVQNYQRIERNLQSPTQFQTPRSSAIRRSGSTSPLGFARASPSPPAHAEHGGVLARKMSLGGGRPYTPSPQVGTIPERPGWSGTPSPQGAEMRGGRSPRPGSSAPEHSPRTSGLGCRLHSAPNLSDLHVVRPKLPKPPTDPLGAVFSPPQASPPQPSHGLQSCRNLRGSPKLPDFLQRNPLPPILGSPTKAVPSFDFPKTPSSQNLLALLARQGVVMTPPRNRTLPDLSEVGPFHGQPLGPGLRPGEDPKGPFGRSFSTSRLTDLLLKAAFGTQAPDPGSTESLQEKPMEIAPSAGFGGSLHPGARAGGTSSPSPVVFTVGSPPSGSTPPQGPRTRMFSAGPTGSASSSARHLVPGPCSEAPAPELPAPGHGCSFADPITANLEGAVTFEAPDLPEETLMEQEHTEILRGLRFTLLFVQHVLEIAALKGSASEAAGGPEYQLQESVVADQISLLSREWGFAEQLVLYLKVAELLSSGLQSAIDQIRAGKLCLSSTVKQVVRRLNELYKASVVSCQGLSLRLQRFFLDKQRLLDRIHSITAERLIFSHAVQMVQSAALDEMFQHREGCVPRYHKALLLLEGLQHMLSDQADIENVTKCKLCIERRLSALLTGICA
Protocol: as §1, §2

ULK3 = biological target: T32, ULK3 (Homo sapiens, UniProt Q6PHR2); settings: read-out: control percentage (% control)
T32 construct: purchased DiscoverX
Protocol: as §1, §2

VRK2 = biological target: T33, VRK2 (Homo sapiens, UniProt Q86Y07); settings: read-out: control percentage (% control)
T33 construct: purchased DiscoverX
Protocol: as §1, §2

## CN1CCN(c2ccc(Nc3nc(N4OCC[C@H]4c4ccccc4)c4cc[nH]c4n3)cc2)CC1 [Example 74, (S)-N-(4-(4-methylpiperazin-1-yl)phenyl)-4-(3-phenylisoxazolidin-2-yl)-7H-pyrrolo[2,3-d]pyrimidin-2-amine]
[1]
  remaining binding at 1 µM: 24%
[2]
  remaining binding at 1 µM: 29%
[3]
  remaining binding at 1 µM: 8.4%
BIKE
  remaining binding at 1 µM: 1.8%
CSNK1G2
  remaining binding at 1 µM: 21%
EGFR(L858R, T790M)
  remaining binding at 1 µM: 17%
EGFR(T790M)
  remaining binding at 1 µM: 3.7%
EPHB4
  remaining binding at 1 µM: 31%
FLT3(ITD, D835V)
  control percentage (% control): 0%
FLT3(K663Q)
  remaining binding at 1 µM: 2.3%
INSR
  remaining binding at 1 µM: 19%
IRAK3
  remaining binding at 1 µM: 24%
[4]
  remaining binding at 1 µM: 0%
LTK
  remaining binding at 1 µM: 27%
MAP3K2
  remaining binding at 1 µM: 14%
MAP3K3
  remaining binding at 1 µM: 25%
MAP4K2
  remaining binding at 1 µM: 12%
MAP4K4
  remaining binding at 1 µM: 30%
MEK5
  remaining binding at 1 µM: 26%
MET(Y1235D)
  remaining binding at 1 µM: 7%
MST3
  remaining binding at 1 µM: 32%
PIP5K2B
  remaining binding at 1 µM: 18%
RIOK1
  remaining binding at 1 µM: 5.5%
ROCK1
  remaining binding at 1 µM: 11%
[5]
  remaining binding at 1 µM: 17%
TIE1
  remaining binding at 1 µM: 16%
TRKA
  remaining binding at 1 µM: 1.1%
TRKB
  remaining binding at 1 µM: 8.3%
TTK
  remaining binding at 1 µM: 13%
[6]
  remaining binding at 1 µM: 5.6%
[7]
  remaining binding at 1 µM: 2.6%
ULK1
  remaining binding at 1 µM: 8.1%
ULK3
  remaining binding at 1 µM: 13%
VRK2
  remaining binding at 1 µM: 33%
